Measured values from ChEMBL document CHEMBL5291721, “A preclinical secondary pharmacology resource illuminates target-adverse drug reaction associations of marketed drugs” (Nat Commun, 2023).

How the values were obtained:
[1] = molecular target: 5-hydroxytryptamine receptor 2B (Homo sapiens, UniProt P41595); format: functional, cell-based
[2] = molecular target: T1, 5-hydroxytryptamine receptor 2C (Homo sapiens, UniProt P28335)
T1 sequence (P28335 whole entry): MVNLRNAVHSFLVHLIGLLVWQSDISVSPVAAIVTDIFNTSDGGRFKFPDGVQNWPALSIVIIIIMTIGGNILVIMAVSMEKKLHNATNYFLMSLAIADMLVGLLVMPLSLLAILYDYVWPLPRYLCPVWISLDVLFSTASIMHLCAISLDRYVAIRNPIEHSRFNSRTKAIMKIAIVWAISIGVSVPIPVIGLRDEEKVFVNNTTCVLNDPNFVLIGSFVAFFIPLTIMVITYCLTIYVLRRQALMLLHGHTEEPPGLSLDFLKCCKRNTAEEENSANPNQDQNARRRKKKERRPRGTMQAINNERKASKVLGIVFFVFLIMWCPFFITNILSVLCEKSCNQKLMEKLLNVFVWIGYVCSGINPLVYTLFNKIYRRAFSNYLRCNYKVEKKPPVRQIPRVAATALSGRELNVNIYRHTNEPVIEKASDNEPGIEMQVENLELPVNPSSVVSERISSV

D(1A) dopamine receptor = D(1A) dopamine receptor (Homo sapiens, UniProt P21728); format: functional, cell-based
[3] = molecular target: Delta-type opioid receptor (Homo sapiens, UniProt P41143)
Thromboxane A2 receptor = molecular target: T2, Thromboxane A2 receptor (Homo sapiens, UniProt P21731)
T2 sequence (P21731 whole entry): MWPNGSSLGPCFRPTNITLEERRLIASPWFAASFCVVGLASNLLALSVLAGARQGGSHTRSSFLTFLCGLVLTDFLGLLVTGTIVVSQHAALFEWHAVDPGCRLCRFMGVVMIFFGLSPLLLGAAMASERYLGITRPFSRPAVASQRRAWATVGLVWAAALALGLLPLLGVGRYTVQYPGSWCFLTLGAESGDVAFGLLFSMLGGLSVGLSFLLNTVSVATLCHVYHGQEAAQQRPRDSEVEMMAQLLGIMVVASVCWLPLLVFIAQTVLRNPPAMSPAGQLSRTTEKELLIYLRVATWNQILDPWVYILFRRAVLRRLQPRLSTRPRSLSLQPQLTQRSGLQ

Melanocortin receptor 3 = Melanocortin receptor 3 (Homo sapiens, UniProt P41968)
[4] = molecular target: T3, Muscarinic acetylcholine receptor M2 (Homo sapiens, UniProt P08172); format: functional, cell-based
T3 sequence (P08172 whole entry): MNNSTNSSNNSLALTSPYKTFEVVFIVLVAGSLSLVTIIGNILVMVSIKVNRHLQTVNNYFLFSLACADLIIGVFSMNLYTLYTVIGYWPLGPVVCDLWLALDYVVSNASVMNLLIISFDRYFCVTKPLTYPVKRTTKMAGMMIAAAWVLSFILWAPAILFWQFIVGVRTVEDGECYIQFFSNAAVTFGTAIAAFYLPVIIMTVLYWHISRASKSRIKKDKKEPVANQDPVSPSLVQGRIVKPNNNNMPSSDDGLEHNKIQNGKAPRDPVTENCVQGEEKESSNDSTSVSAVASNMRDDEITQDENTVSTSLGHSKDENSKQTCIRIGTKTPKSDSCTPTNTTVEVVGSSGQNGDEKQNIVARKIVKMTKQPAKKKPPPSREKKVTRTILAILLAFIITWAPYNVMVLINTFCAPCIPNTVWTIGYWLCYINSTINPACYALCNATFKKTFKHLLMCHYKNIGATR

[5] = molecular target: T4, Type-1 angiotensin II receptor (Homo sapiens, UniProt P30556)
T4 sequence (P30556 whole entry): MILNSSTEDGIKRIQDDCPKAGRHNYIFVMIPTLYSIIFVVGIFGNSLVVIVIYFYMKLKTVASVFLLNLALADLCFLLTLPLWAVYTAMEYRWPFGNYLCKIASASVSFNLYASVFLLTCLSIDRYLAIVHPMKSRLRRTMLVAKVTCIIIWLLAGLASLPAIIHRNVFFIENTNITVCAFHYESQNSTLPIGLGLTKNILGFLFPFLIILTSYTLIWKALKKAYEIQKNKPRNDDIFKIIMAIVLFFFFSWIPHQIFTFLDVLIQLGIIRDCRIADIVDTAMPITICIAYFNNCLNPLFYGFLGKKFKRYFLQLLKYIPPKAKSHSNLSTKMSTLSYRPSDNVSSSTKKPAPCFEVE

[6] = molecular target: T5, Alpha-2A adrenergic receptor (Homo sapiens, UniProt P08913); format: functional, cell-based
T5 sequence (P08913 whole entry): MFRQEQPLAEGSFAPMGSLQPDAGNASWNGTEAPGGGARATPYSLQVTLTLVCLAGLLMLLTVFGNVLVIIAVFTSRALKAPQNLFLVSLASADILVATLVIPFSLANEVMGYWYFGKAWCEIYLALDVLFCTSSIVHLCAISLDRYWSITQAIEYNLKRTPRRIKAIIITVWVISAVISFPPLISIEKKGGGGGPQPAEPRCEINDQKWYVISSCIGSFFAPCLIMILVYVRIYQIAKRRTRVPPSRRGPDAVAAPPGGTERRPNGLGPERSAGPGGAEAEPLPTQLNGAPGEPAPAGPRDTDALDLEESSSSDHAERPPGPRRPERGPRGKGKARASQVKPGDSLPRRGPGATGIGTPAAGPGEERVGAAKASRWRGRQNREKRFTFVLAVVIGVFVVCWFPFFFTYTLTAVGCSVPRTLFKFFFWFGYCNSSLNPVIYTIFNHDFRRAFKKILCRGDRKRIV

[7] = molecular target: Glutamate receptor ionotropic, NMDA 1 (Rattus norvegicus, UniProt P35439)
Endothelin-1 receptor = molecular target: T6, Endothelin-1 receptor (Homo sapiens, UniProt P25101)
T6 sequence (P25101 whole entry): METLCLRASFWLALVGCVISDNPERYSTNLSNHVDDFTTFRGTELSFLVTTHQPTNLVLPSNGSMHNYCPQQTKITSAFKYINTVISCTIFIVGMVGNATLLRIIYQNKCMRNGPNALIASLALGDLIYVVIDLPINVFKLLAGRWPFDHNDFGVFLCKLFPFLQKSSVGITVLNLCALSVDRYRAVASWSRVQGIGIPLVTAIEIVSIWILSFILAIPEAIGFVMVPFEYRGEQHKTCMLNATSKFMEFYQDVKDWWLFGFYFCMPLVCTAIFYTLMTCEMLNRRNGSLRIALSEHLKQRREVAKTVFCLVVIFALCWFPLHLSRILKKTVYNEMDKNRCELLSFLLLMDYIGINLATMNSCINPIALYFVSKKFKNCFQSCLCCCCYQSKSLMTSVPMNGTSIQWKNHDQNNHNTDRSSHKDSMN
Further: assay procedure not described here.

Sequence of 5-hydroxytryptamine receptor 2B (P41595 whole entry): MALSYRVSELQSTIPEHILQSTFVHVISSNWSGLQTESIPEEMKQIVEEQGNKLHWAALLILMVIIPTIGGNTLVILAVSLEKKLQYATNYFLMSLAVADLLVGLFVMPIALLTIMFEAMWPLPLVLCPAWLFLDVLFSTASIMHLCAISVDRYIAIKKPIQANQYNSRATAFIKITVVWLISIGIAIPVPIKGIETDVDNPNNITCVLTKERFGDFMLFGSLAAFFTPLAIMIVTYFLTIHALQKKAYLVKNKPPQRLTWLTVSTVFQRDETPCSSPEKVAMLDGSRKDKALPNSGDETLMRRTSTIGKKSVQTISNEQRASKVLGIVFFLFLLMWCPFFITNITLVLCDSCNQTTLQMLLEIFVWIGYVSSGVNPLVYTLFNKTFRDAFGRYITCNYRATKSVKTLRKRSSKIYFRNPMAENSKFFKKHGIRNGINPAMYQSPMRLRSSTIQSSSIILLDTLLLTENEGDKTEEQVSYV
Sequence of Delta-type opioid receptor (P41143 whole entry): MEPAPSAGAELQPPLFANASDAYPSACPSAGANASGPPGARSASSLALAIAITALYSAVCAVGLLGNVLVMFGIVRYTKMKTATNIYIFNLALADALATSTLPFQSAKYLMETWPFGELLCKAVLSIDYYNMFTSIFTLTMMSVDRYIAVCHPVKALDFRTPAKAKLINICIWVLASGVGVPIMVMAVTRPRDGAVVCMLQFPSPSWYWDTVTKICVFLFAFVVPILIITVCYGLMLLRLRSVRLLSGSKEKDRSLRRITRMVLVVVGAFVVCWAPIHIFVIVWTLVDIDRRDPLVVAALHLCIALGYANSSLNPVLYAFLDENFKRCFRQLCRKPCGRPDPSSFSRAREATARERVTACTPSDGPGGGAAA
Sequence of Melanocortin receptor 3 (P41968 whole entry): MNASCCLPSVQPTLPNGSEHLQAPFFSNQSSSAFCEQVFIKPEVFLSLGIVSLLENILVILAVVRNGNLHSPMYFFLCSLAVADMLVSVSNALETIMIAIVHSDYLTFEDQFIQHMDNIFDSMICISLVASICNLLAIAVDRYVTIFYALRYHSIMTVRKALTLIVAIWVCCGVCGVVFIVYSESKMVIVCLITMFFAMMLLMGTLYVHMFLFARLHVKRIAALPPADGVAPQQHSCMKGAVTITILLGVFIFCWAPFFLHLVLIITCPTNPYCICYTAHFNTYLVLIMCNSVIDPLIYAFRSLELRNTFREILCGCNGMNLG
Sequence of D(1A) dopamine receptor (P21728 whole entry): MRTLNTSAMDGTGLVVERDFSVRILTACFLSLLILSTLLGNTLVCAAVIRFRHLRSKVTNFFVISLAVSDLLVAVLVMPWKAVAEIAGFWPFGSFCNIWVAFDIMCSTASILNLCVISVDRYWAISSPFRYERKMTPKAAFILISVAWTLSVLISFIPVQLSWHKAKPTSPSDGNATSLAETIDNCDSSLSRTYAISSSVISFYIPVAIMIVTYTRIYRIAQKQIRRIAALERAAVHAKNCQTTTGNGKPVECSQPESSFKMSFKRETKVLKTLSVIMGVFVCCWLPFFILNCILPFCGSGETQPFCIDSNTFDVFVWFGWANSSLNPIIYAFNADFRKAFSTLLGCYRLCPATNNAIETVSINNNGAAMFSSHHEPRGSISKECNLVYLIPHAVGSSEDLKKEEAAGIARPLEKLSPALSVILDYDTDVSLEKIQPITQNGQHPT

Row | SMILES | AC50 [1] [µM] | AC50 [2] [µM] | AC50 (D(1A) dopamine receptor) [µM] | AC50 [3] [µM] | AC50 (Thromboxane A2 receptor) [µM] | AC50 (Melanocortin receptor 3) [µM] | AC50 [4] [µM] | AC50 [5] [µM] | AC50 [6] [µM] | AC50 [7] [µM] | AC50 (Endothelin-1 receptor) [µM]
1 | CCC1(CCC(C)C)C(=O)NC(=O)NC1=O [AMOBARBITAL] | > 10 | > 30 | > 10 | > 30 | > 10 | > 10 | > 10 | > 10 | > 10 | > 10 | –
2 | COc1ccc(C2C(=O)c3ccccc3C2=O)cc1 [ANISINDIONE] | > 10 | > 30 | > 30 | > 30 | > 10 | > 10 | > 10 | > 10 | > 10 | > 10 | –
3 | Cc1cc(=O)n(-c2ccccc2)n1C [ANTIPYRINE] | > 10 | > 30 | > 10 | > 30 | > 30 | > 30 | > 10 | > 30 | > 10 | > 10 | –
4 | O=C(O)CCNC(=O)c1ccc(/N=N/c2ccc(O)c(C(=O)O)c2)cc1 [BALSALAZIDE] | > 30 | > 30 | > 30 | > 30 | > 30 | > 30 | > 30 | 27.6 | > 30 | > 30 | –
5 | CO/N=C(\C(=O)N[C@@H]1C(=O)N2C(C(=O)O)=CCS[C@H]12)c1csc(N)n1 [CEFTIZOXIME] | > 30 | – | > 30 | – | – | > 30 | > 30 | > 30 | > 30 | – | > 30
6 | COc1cc(N)c(Cl)cc1C(=O)NC1CCN(CCCOc2ccc(F)cc2)CC1OC (configuration not stated) [CISAPRIDE] | – | – | > 10 | > 10 | 22.9 | > 30 | > 10 | > 30 | – | > 10 | > 30
7 | CCOC(=O)C(C)(C)Oc1ccc(Cl)cc1 [CLOFIBRATE] | > 10 | > 30 | > 10 | > 30 | > 30 | > 30 | > 10 | > 30 | > 10 | > 10 | > 30
8 | C[C@@H]1C[C@H]2[C@@H]3CCC4=CC(=O)C=C[C@]4(C)[C@@]3(F)[C@@H](O)C[C@]2(C)[C@@]1(O)C(=O)CO [DEXAMETHASONE] | > 10 | > 30 | > 30 | > 30 | > 30 | > 30 | > 10 | > 30 | > 10 | > 10 | –
9 | CCN1CC(CCN2CCOCC2)C(c2ccccc2)(c2ccccc2)C1=O (configuration not stated) [DOXAPRAM] | > 30 | 0.071 | > 30 | > 30 | > 30 | > 30 | > 30 | > 30 | > 30 | > 30 | > 30
10 | CC(C)NC[C@H](O)COc1ccc(CC(N)=O)cc1 [ESATENOLOL] | – | > 10 | – | > 10 | > 30 | > 30 | – | > 30 | > 10 | > 10 | > 30
11 | CCOC(=O)c1ncn2c1CN(C)C(=O)c1cc(F)ccc1-2 [FLUMAZENIL] | > 30 | > 30 | > 30 | > 30 | > 30 | > 30 | > 30 | > 30 | > 30 | > 30 | –
12 | COc1ccc2cc(CCC(C)=O)ccc2c1 [NABUMETONE] | > 10 | > 30 | > 30 | > 30 | > 10 | > 10 | > 10 | > 10 | > 10 | > 10 | –
13 | Fc1ccc([C@@H]2CCNC[C@H]2COc2ccc3c(c2)OCO3)cc1 [PAROXETINE] | 19.1 | > 30 | > 10 | 0.83 | > 30 | > 30 | – | > 30 | – | > 10 | > 30
14 | NC(=O)NC(=O)Cc1ccccc1 [PHENACEMIDE] | > 10 | > 30 | > 10 | > 30 | > 10 | > 10 | > 10 | > 10 | > 10 | > 10 | –
15 | CCCN(CCC)S(=O)(=O)c1ccc(C(=O)O)cc1 [PROBENECID] | > 10 | > 30 | > 10 | > 30 | > 10 | > 10 | > 10 | > 10 | > 10 | > 10 | –
16 | Cc1cc(C)nc(NS(=O)(=O)c2ccc(N)cc2)n1 [SULFAMETHAZINE] | > 10 | > 30 | > 30 | > 30 | > 10 | > 10 | > 10 | > 10 | > 10 | > 10 | –
17 | CCCCCCCC(=O)CC[C@@H]1[C@@H](C/C=C\CCCC(=O)OC(C)C)[C@@H](O)C[C@H]1O [UNOPROSTONE ISOPROPYL] | 0.89 | – | – | > 30 | – | 27 | – | – | – | – | –
18 | CC(c1cc2ccccc2s1)N(O)C(N)=O (configuration not stated) [ZILEUTON] | > 10 | > 30 | > 10 | > 30 | > 10 | > 10 | > 10 | > 10 | > 10 | > 10 | –
